pIC50: −log10 of the molar value.

One experiment addresses T1, Endothelial lipase (EL) (Homo sapiens, UniProt Q9Y5X9).
T1 construct: HT-1080 cells, which were transformed by RAGE technology (Athersys) to overexpress endogenous EL; endogenous in cells; conditioned medium used as the enzyme source
T1 sequence (Q9Y5X9 21-500): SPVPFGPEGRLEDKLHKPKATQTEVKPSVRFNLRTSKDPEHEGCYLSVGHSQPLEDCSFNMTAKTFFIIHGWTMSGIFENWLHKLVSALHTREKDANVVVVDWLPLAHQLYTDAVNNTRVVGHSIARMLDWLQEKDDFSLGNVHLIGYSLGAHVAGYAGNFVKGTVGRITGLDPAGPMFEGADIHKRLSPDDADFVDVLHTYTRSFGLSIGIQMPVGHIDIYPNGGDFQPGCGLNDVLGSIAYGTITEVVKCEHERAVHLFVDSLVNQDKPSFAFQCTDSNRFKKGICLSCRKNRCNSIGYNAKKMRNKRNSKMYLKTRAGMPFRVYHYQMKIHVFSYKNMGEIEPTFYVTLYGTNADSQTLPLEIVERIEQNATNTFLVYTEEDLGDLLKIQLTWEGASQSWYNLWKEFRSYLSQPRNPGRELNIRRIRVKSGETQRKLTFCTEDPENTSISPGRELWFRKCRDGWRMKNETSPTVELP
As to the kind of experiment: Endothelial lipase (EL) enzymatic assay with fluorescent substrate A10070 in DMPG vesicles. Conditions: conditioned media from HT-1080 cells overexpressing endogenous EL; 20 min preincubation at 37° C.; read-out: EL IC50. Type of experiment: biochemical. An outline of the steps:
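The enzyme source was conditioned medium from HT-1080 cells engineered to overexpress endogenous EL. It was preincubated with compound for 20 min at 37 °C in 50 mM HEPES pH 8.0, 50 mM NaCl, 1 mM CaCl2. Reactions started with DMPG vesicles carrying FRET substrate A10070 (mole fraction 0.05). The rate was taken from the linear slope of fluorescence (ex 488/em 530 nm) over 10 min.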
As to `O=C(N[C@H]1CC[C@@H](c2ccccc2)CC1)c1[nH]c(=O)[nH]c(=O)c1NCCCn1ccnc1` [Example 216, 5-(3-(1H-imidazol-1-yl)propylamino)-2,6-dioxo-N-(cis-4-phenylcyclohexyl)-1,2,3,6-tetrahydropyrimidine-4-carboxamide], the pIC50 (commonly the IC50 on a negative log10 scale, so that one unit is a factor of ten) was 5.46.

`O=C(N[C@H]1CC[C@@H](c2ccccc2)CC1)c1[nH]c(=O)[nH]c(=O)c1NCCc1ccc(Cl)cc1` [Example 218, 5-(4-chlorophenethylamino)-2,6-dioxo-N-(cis-4-phenylcyclohexyl)-1,2,3,6-tetrahydropyrimidine-4-carboxamide]: the pIC50 is 6.53.

As to `O=C(N[C@H]1CC[C@@H](c2ccccc2)CC1)c1[nH]c(=O)[nH]c(=O)c1NCc1ccccn1` [Example 225, 2,6-dioxo-N-(cis-4-phenylcyclohexyl)-5-(pyridin-2-ylmethylamino)-1,2,3,6-tetrahydropyrimidine-4-carboxamide], the negative logarithm of the IC50 (pIC50) is 5.28.

With `O=C(N[C@H]1CC[C@@H](c2ccccc2)CC1)c1[nH]c(=O)[nH]c(=O)c1N[C@@H]1C[C@H]2CC[C@@H]1C2` [Example 231, 5-((1R,2R,4S)-bicyclo[2.2.1]heptan-2-ylamino)-2,6-dioxo-N-(cis-4-phenylcyclohexyl)-1,2,3,6-tetrahydropyrimidine-4-carboxamide], the pIC50 was 5.42.

As for `CC(C)(O)CNc1c(C(=O)N[C@H]2CC[C@@H](c3ccccc3)CC2)[nH]c(=O)[nH]c1=O` [Example 234, 5-(2-hydroxy-2-methylpropylamino)-2,6-dioxo-N-(cis-4-phenylcyclohexyl)-1,2,3,6-tetrahydropyrimidine-4-carboxamide], the pIC50 was 6.36.

The same experiment, now with this note: range observed in the EL assay; read-out: EL IC50 values.
`O=C(N[C@H]1CC[C@@H](c2ccccc2)CC1)c1[nH]c(=O)[nH]c(=O)c1NCc1ccccc1CO` [Example 212, 5-(2-(hydroxymethyl)benzylamino)-2,6-dioxo-N-(cis-4-phenylcyclohexyl)-1,2,3,6-tetrahydropyrimidine-4-carboxamide]: the negative logarithm of the IC50 (pIC50) was ≥ 5.00.

Consider `O=C(N[C@H]1CC[C@@H](c2ccccc2)CC1)c1[nH]c(=O)[nH]c(=O)c1NCCc1c[nH]cn1` [Example 213, 5-(2-(1H-imidazol-4-yl)ethylamino)-2,6-dioxo-N-(cis-4-phenylcyclohexyl)-1,2,3,6-tetrahydropyrimidine-4-carboxamide], for which the pIC50 was ≥ 5.00.

As to `COCCNc1c(C(=O)N[C@H]2CC[C@@H](c3ccccc3)CC2)[nH]c(=O)[nH]c1=O` [Example 214, 5-(2-methoxyethylamino)-2,6-dioxo-N-(cis-4-phenylcyclohexyl)-1,2,3,6-tetrahydropyrimidine-4-carboxamide], the pIC50 was ≥ 5.00.

On to `O=C(N[C@H]1CC[C@@H](c2ccccc2)CC1)c1[nH]c(=O)[nH]c(=O)c1NCc1ccccc1C(F)(F)F` [Example 215, 2,6-dioxo-N-(cis-4-phenylcyclohexyl)-5-(2-(trifluoromethyl)benzylamino)-1,2,3,6-tetrahydropyrimidine-4-carboxamide], for which the pIC50 is ≥ 5.00.

For the compound `O=C(N[C@H]1CC[C@@H](c2ccccc2)CC1)c1[nH]c(=O)[nH]c(=O)c1NCCCn1ccnc1` [Example 216, 5-(3-(1H-imidazol-1-yl)propylamino)-2,6-dioxo-N-(cis-4-phenylcyclohexyl)-1,2,3,6-tetrahydropyrimidine-4-carboxamide], the pIC50 is ≥ 5.00.

For the compound `O=C(N[C@H]1CC[C@@H](c2ccccc2)CC1)c1[nH]c(=O)[nH]c(=O)c1NCCO` [Example 217, 5-(2-hydroxyethylamino)-2,6-dioxo-N-(cis-4-phenylcyclohexyl)-1,2,3,6-tetrahydropyrimidine-4-carboxamide], the pIC50 is ≥ 5.00.

Take `O=C(N[C@H]1CC[C@@H](c2ccccc2)CC1)c1[nH]c(=O)[nH]c(=O)c1NCCc1ccc(Cl)cc1` [Example 218, 5-(4-chlorophenethylamino)-2,6-dioxo-N-(cis-4-phenylcyclohexyl)-1,2,3,6-tetrahydropyrimidine-4-carboxamide]: the pIC50 was ≥ 5.00.

Regarding `O=C(N[C@H]1CC[C@@H](c2ccccc2)CC1)c1[nH]c(=O)[nH]c(=O)c1NCCCN1CCOCC1` [Example 219, 5-(3-morpholinopropylamino)-2,6-dioxo-N-(cis-4-phenylcyclohexyl)-1,2,3,6-tetrahydropyrimidine-4-carboxamide], the pIC50 is ≥ 5.00.

Consider `O=C(N[C@H]1CC[C@@H](c2ccccc2)CC1)c1[nH]c(=O)[nH]c(=O)c1NCc1ccc(C(F)(F)F)cc1` [Example 220, 2,6-dioxo-N-(cis-4-phenylcyclohexyl)-5-(4-(trifluoromethyl)benzylamino)-1,2,3,6-tetrahydropyrimidine-4-carboxamide], for which the pIC50 is ≥ 5.00.

For the compound `O=C(N[C@H]1CC[C@@H](c2ccccc2)CC1)c1[nH]c(=O)[nH]c(=O)c1NCCc1ccccc1Cl` [Example 221, 5-(2-chlorophenethylamino)-2,6-dioxo-N-(cis-4-phenylcyclohexyl)-1,2,3,6-tetrahydropyrimidine-4-carboxamide], the pIC50 is ≥ 5.00.

For the compound `O=C(N[C@H]1CC[C@@H](c2ccccc2)CC1)c1[nH]c(=O)[nH]c(=O)c1NCc1cccc(C(F)(F)F)c1` [Example 222, 2,6-dioxo-N-(cis-4-phenylcyclohexyl)-5-(3-(trifluoromethyl)benzylamino)-1,2,3,6-tetrahydropyrimidine-4-carboxamide], the pIC50 was ≥ 5.00.

For `O=C(N[C@H]1CC[C@@H](c2ccccc2)CC1)c1[nH]c(=O)[nH]c(=O)c1NC1CCN(Cc2ccccc2)C1` (stereo partly drawn) [Example 223, 5-(1-benzylpyrrolidin-3-ylamino)-2,6-dioxo-N-(cis-4-phenylcyclohexyl)-1,2,3,6-tetrahydropyrimidine-4-carboxamide], the pIC50 was ≥ 5.00.

For the compound `O=C(N[C@H]1CC[C@@H](c2ccccc2)CC1)c1[nH]c(=O)[nH]c(=O)c1NC1CCCc2ccccc21` (stereo partly drawn) [Example 224, 2,6-dioxo-N-(cis-4-phenylcyclohexyl)-5-(1,2,3,4-tetrahydronaphthalen-1-ylamino)-1,2,3,6-tetrahydropyrimidine-4-carboxamide], the negative logarithm of the IC50 (pIC50) was ≥ 5.00.

Turning to `O=C(N[C@H]1CC[C@@H](c2ccccc2)CC1)c1[nH]c(=O)[nH]c(=O)c1NCc1ccccn1` [Example 225, 2,6-dioxo-N-(cis-4-phenylcyclohexyl)-5-(pyridin-2-ylmethylamino)-1,2,3,6-tetrahydropyrimidine-4-carboxamide], the negative-log IC50 (pIC50) was ≥ 5.00.

For the compound `NS(=O)(=O)c1ccc(CCNc2c(C(=O)N[C@H]3CC[C@@H](c4ccccc4)CC3)[nH]c(=O)[nH]c2=O)cc1` [Example 226, 2,6-dioxo-N-(cis-4-phenylcyclohexyl)-5-(4-sulfamoylphenethylamino)-1,2,3,6-tetrahydropyrimidine-4-carboxamide], the pIC50 was ≥ 5.00.

With `O=C(N[C@H]1CC[C@@H](c2ccccc2)CC1)c1[nH]c(=O)[nH]c(=O)c1NCc1ccncc1` [Example 227, 2,6-dioxo-N-(cis-4-phenylcyclohexyl)-5-(pyridin-4-ylmethylamino)-1,2,3,6-tetrahydropyrimidine-4-carboxamide], the pIC50 is ≥ 5.00.

Take `O=C(N[C@H]1CC[C@@H](c2ccccc2)CC1)c1[nH]c(=O)[nH]c(=O)c1NCC(F)(F)F` [Example 228, 2,6-dioxo-N-(cis-4-phenylcyclohexyl)-5-(2,2,2-trifluoroethylamino)-1,2,3,6-tetrahydropyrimidine-4-carboxamide]: the pIC50 was ≥ 5.00.

`CCNc1c(C(=O)N[C@H]2CC[C@@H](c3ccccc3)CC2)[nH]c(=O)[nH]c1=O` [Example 229, 5-(ethylamino)-2,6-dioxo-N-(cis-4-phenylcyclohexyl)-1,2,3,6-tetrahydropyrimidine-4-carboxamide]: the pIC50 is ≥ 5.00.

For the compound `CN1CCC(Nc2c(C(=O)N[C@H]3CC[C@@H](c4ccccc4)CC3)[nH]c(=O)[nH]c2=O)CC1` [Example 230, 5-(1-methylpiperidin-4-ylamino)-2,6-dioxo-N-(cis-4-phenylcyclohexyl)-1,2,3,6-tetrahydropyrimidine-4-carboxamide], the pIC50 is ≥ 5.00.

Regarding `O=C(N[C@H]1CC[C@@H](c2ccccc2)CC1)c1[nH]c(=O)[nH]c(=O)c1N[C@@H]1C[C@H]2CC[C@@H]1C2` [Example 231, 5-((1R,2R,4S)-bicyclo[2.2.1]heptan-2-ylamino)-2,6-dioxo-N-(cis-4-phenylcyclohexyl)-1,2,3,6-tetrahydropyrimidine-4-carboxamide], the pIC50 is ≥ 5.00.

Take `C[C@H](Nc1c(C(=O)N[C@H]2CC[C@@H](c3ccccc3)CC2)[nH]c(=O)[nH]c1=O)C1CCCCC1` [Example 232, 5-((S)-1-cyclohexylethylamino)-2,6-dioxo-N-(cis-phenylcyclohexyl)-1,2,3,6-tetrahydropyrimidine-4-carboxamide]: the pIC50 is ≥ 5.00.

Regarding `O=C(N[C@H]1CC[C@@H](c2ccccc2)CC1)c1[nH]c(=O)[nH]c(=O)c1NC1CCC1` [Example 233, 5-(cyclobutylamino)-2,6-dioxo-N-(cis-4-phenylcyclohexyl)-1,2,3,6-tetrahydropyrimidine-4-carboxamide], the pIC50 is ≥ 5.00.

In the case of `CC(C)(O)CNc1c(C(=O)N[C@H]2CC[C@@H](c3ccccc3)CC2)[nH]c(=O)[nH]c1=O` [Example 234, 5-(2-hydroxy-2-methylpropylamino)-2,6-dioxo-N-(cis-4-phenylcyclohexyl)-1,2,3,6-tetrahydropyrimidine-4-carboxamide], the negative-log IC50 (pIC50) was ≥ 5.00.

Consider `CC(CO)Nc1c(C(=O)N[C@H]2CC[C@@H](c3ccccc3)CC2)[nH]c(=O)[nH]c1=O` (stereo partly drawn) [Example 235, 5-(1-hydroxypropan-2-ylamino)-2,6-dioxo-N-(cis-4-phenylcyclohexyl)-1,2,3,6-tetrahydropyrimidine-4-carboxamide], for which the negative logarithm of the IC50 (pIC50) was ≥ 5.00.

As for `O=C(N[C@H]1CC[C@@H](c2ccccc2)CC1)c1[nH]c(=O)[nH]c(=O)c1NCc1cc(F)cc(C(F)(F)F)c1` [Example 236, 5-(3-fluoro-5-(trifluoromethyl)benzylamino)-2,6-dioxo-N-((1s,4s)-4-phenylcyclohexyl)-1,2,3,6-tetrahydropyrimidine-4-carboxamide], the pIC50 is ≥ 5.00.

With `O=C(N[C@H]1CC[C@@H](c2ccccc2)CC1)c1[nH]c(=O)[nH]c(=O)c1NCCN1CCCCC1` [Example 237, 2,6-dioxo-N-((1s,4s)-4-phenylcyclohexyl)-5-(2-(piperidin-1-yl)ethylamino)-1,2,3,6-tetrahydropyrimidine-4-carboxamide], the pIC50 was ≥ 5.00.

These data come from patent US9199946B2, “Pyrimidinone carboxamide inhibitors of endothelial lipase” (BRISTOL-MYERS SQUIBB COMPANY, priority 2012, dated 2015).
